Laboratory results reported in ChEMBL document CHEMBL1147675, “Optimization of subsite binding to the beta5 subunit of the human 20S proteasome using vinyl sulfones and 2-keto-1,3,4-oxadiazoles: syntheses and cellular properties of potent, selective proteasome inhibitors” (J Med Chem, 2006).
In brackets after ≈: the same amount, converted by molar mass. Peptide text beside a SMILES is read from it. * marks the point of attachment. Cbz = O=C(OCc1ccccc1)*; OtBu = CC(C)(C)O*

How the values were obtained:
physchem = conditions: PBS, pH 7.4
Description: Solubility in PBS at pH 7.4

Cathepsin B = Cathepsin B (Homo sapiens, UniProt P07858)
Description: Inhibition of cathepsin B

Cathepsin S = Cathepsin S (Homo sapiens, UniProt P25774)
Sequence of Cathepsin S (P25774 whole entry): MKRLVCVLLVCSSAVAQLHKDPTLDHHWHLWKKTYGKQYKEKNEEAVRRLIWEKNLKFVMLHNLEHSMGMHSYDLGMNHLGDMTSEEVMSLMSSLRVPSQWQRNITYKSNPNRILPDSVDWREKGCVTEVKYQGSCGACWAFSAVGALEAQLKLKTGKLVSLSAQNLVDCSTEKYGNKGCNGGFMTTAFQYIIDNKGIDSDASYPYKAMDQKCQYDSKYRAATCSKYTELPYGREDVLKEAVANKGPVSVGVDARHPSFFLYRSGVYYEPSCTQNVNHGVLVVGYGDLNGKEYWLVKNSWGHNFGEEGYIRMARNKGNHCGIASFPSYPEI
Description: Inhibition of cathepsin S

PC-3 = assay: cells; conditions: Homo sapiens
Description: Antiproliferative activity against human PC3 cell line

in vitro = conditions: human, plasma
Description: Stability in human plasma after 120 mins

Row | Compound | solubility (physchem) | IC50 (Cathepsin B) | IC50 (Cathepsin S) | IC50 (PC-3) | remaining at 2 h (in vitro) | Ki (Cathepsin B) | Ki (Cathepsin S)
1 | Cc1ccc(S(=O)(=O)N[C@@H](CC(=O)NCC(C)(C)C)C(=O)N[C@@H](CO)C(=O)N[C@H](/C=C/S(C)(=O)=O)CC(C)C)cc1 | 381 µM (≈ 235 µg/mL) | > 150 µM | > 150 µM | 2.4 µM | 99% | – | –
2 | CC(C)C[C@@H](/C=C/S(C)(=O)=O)NC(=O)[C@H](CO)NC(=O)[C@H](CCC(=O)OC(C)(C)C)NS(=O)(=O)c1ccccc1 | – | – | – | 4 µM | – | – | –
3 | Cc1ccc(S(=O)(=O)N[C@@H](CC(=O)NCC(C)(C)C)C(=O)N[C@@H](C)C(=O)NC(C)(C)C(=O)c2nnc(-c3ccccc3)o2)cc1 | 249 µM (≈ 160 µg/mL) | – | – | – | 100% | – | –
4 | Cc1ccc(S(=O)(=O)N[C@@H](CC(=O)NCC(C)(C)C)C(=O)N[C@@H](C)C(=O)N[C@@H](CC(C)C)C(=O)c2nnc(-c3ccc(N(C)C)cc3)o2)cc1 | < 10 µM | – | – | – | 72% | – | –
5 | Cc1ccc(S(=O)(=O)N[C@@H](CC(=O)NCC(C)(C)C)C(=O)N[C@@H](C)C(=O)N[C@H](/C=C/S(C)(=O)=O)CC(C)C)cc1 | 470 µM (≈ 282 µg/mL) | – | – | – | 96% | – | –
6 | CC(C)C[C@@H](/C=C/S(C)(=O)=O)NC(=O)[C@H](CO)NC(=O)[C@H](CCC(=O)OC(C)(C)C)NC(=O)OCc1ccccc1 | – | – | – | 3 µM | – | – | –
7 | Cc1cccc(S(=O)(=O)N[C@@H](CC(=O)NCC(C)(C)C)C(=O)N[C@@H](C)C(=O)N[C@@H](CC(C)C)C(=O)c2nnc(-c3ccccc3)o2)c1 | < 10 µM | – | – | – | 28% | – | –
8 | CC(C)C[C@@H](C#N)NC(=O)[C@H](CC(C)C)NC(=O)[C@H](CC(C)C)NC(=O)OCc1ccccc1 | – | – | – | – | – | 18 µM | 0.046 µM
9 | Cc1ccc(S(=O)(=O)N[C@@H](CCC(=O)OC(C)(C)C)C(=O)N[C@@H](C)C(=O)N[C@H](/C=C/S(C)(=O)=O)CC(C)C)cc1 | 48 µM (≈ 28.9 µg/mL) | 13 µM | 67 µM | 0.5 µM | 7% | – | –
10 | CC[C@H](C)[C@H](NC(=O)OCc1ccccc1)C(=O)N[C@@H](CCC(=O)OC(C)(C)C)C(=O)N[C@@H](C)C(=O)N[C@H](/C=C/S(C)(=O)=O)CC(C)C | < 10 µM | 29 µM | 36 µM | 2 µM | 52% | – | –
11 | CC[C@H](C)[C@H](NC(=O)OCc1ccccc1)C(=O)N[C@@H](CCCC(=O)OC(C)(C)C)C(=O)N[C@@H](C)C(=O)N[C@H](/C=C/S(C)(=O)=O)CC(C)C | – | 18 µM | 7.1 µM | – | 20% | – | –
12 | CC[C@H](C)[C@H](NC(=O)OCc1ccccc1)C(=O)N[C@@H](Cc1ccccc1)C(=O)N[C@@H](C)C(=O)N[C@H](/C=C/S(C)(=O)=O)CC(C)C | – | 27 µM | 9 µM | – | – | – | –
13 | CC(C)C[C@@H](/C=C/S(C)(=O)=O)NC(=O)[C@H](C)NC(=O)[C@H](CCC(=O)OC(C)(C)C)NC(=O)c1ccccc1 | – | – | – | 1.75 µM | – | – | –
14 | CC[C@H](C)[C@H](NC(=O)OCc1ccccc1)C(=O)N[C@@H](CC(C)C)C(=O)N[C@@H](C)C(=O)N[C@H](/C=C/S(C)(=O)=O)CC(C)C | – | 5.8 µM | 0.7 µM | 0.8 µM | 66% | – | –
15 | CC(=O)N[C@@H](CCc1ccccc1)C(=O)N[C@@H](CC(C)C)C(=O)N[C@@H](C)C(=O)N[C@H](/C=C/S(C)(=O)=O)CC(C)C | – | 1.6 µM | 6.9 µM | – | – | – | –
16 | CC[C@H](C)[C@H](NC(=O)OCc1ccccc1)C(=O)N[C@@H](CCC(=O)OC1CCCCC1)C(=O)N[C@@H](C)C(=O)N[C@H](/C=C/S(C)(=O)=O)CC(C)C | – | – | – | – | 0% | – | –
17 | CC[C@H](C)[C@H](NC(=O)OCc1ccccc1)C(=O)N1CCC[C@H]1C(=O)N[C@@H](C)C(=O)N[C@H](/C=C/S(C)(=O)=O)CC(C)C | – | 23 µM | 13 µM | – | – | – | –
18 | CC(C)C[C@@H](/C=C/S(C)(=O)=O)NC(=O)[C@H](C)NC(=O)[C@H](CCC(=O)OC(C)(C)C)NC(=O)OCc1ccccc1 | < 10 µM | 20 µM | 3 µM | 6.5 µM | 1% | – | –
19 | CC(C)C[C@@H](/C=C/S(C)(=O)=O)NC(=O)CNC(=O)[C@H](CCC(=O)OC(C)(C)C)NC(=O)OCc1ccccc1 | – | > 150 µM | 21 µM | – | – | – | –
20 | Cc1ccc(S(=O)(=O)N[C@@H](CC(=O)NCC(C)(C)C)C(=O)NC(C)(C)C(=O)N[C@H](/C=C/S(C)(=O)=O)CC(C)C)cc1 | 500 µM (≈ 307 µg/mL) | – | – | – | 100% | – | –

Row | Compound | solubility (physchem) | IC50 (Cathepsin B) | IC50 (Cathepsin S) | IC50 (PC-3) | remaining at 2 h (in vitro) | Ki (Cathepsin B) | Ki (Cathepsin S)
21 | CC(=O)N[C@@H](CCc1ccccc1)C(=O)N[C@@H](CC(C)C)C(=O)NCC(=O)N[C@H](/C=C/S(C)(=O)=O)CC(C)C | – | > 150 µM | 12 µM | – | – | – | –
22 | CC(C)C[C@@H](/C=C/S(C)(=O)=O)NC(=O)[C@H](C)NC(=O)[C@H](CCC(=O)OC(C)(C)C)NC(=O)C(c1ccccc1)c1ccccc1 | < 10 µM | – | – | 0.5 µM | 1% | – | –
23 | CC[C@H](C)[C@H](NC(=O)OCc1ccccc1)C(=O)N[C@@H](CS(=O)(=O)Cc1ccccc1)C(=O)N[C@@H](C)C(=O)N[C@H](/C=C/S(C)(=O)=O)CC(C)C | – | > 150 µM | 12 µM | – | – | – | –
24 | COC[C@H](NC(=O)[C@H](CC(=O)NCC(C)(C)C)NS(=O)(=O)c1ccc(C)cc1)C(=O)N[C@@H](CC(C)C)C(=O)c1nnc(-c2ccccc2)o1 | 37 µM (≈ 25.9 µg/mL) | – | – | – | 79% | 44 µM | 8.1 µM
25 | CC(=O)N[C@@H](CCc1ccccc1)C(=O)N[C@@H](CC(C)C)C(=O)N[C@@H](Cc1ccccc1)C(=O)N[C@H](/C=C/S(C)(=O)=O)CC(C)C | – | 0.85 µM | 0.15 µM | 3 µM | 100% | – | –
26 | CC[C@H](C)[C@H](NC(=O)OCc1ccccc1)C(=O)N[C@@H](CC(=O)OC(C)(C)C)C(=O)N[C@@H](C)C(=O)N[C@H](/C=C/S(C)(=O)=O)CC(C)C | – | – | – | 3.25 µM | – | – | –
27 | CC[C@H](C)[C@H](NC(=O)OCc1ccccc1)C(=O)N[C@@H](COCc1ccccc1)C(=O)N[C@@H](C)C(=O)N[C@H](/C=C/S(C)(=O)=O)CC(C)C | – | 38 µM | 35 µM | 0.45 µM | 83% | – | –
28 | CC[C@H](C)[C@H](NC(=O)OCc1ccccc1)C(=O)N[C@@H](CCC(=O)NC(C)(C)CC)C(=O)N[C@@H](C)C(=O)N[C@H](/C=C/S(C)(=O)=O)CC(C)C | 20 µM (≈ 14.2 µg/mL) | – | – | 0.55 µM | 83% | – | –
29 | CC[C@H](C)[C@H](NC(=O)OCc1ccccc1)C(=O)N[C@@H](CCC(N)=O)C(=O)N[C@@H](C)C(=O)N[C@H](/C=C/S(C)(=O)=O)CC(C)C | – | 54 µM | 48 µM | – | – | – | –
30 | CC[C@H](C)[C@H](NC(=O)OCc1ccccc1)C(=O)N[C@@H](CC(=O)NCC(C)(C)C)C(=O)N[C@@H](C)C(=O)N[C@H](/C=C/S(C)(=O)=O)CC(C)C | < 10 µM | – | – | 0.2 µM | 90% | – | –
31 | CC(=O)N[C@@H](CCC(=O)OC(C)(C)C)C(=O)N[C@@H](C)C(=O)N[C@H](/C=C/S(C)(=O)=O)CC(C)C | – | 77 µM | 170 µM | 7.5 µM | – | – | –
32 | Cc1ccc(S(=O)(=O)N[C@@H](CC(=O)NCC(C)(C)C)C(=O)N[C@@H](C)C(=O)N[C@@H](CC(C)C)C(=O)c2nnc(-c3ccccc3)o2)cc1 | 13 µM (≈ 8.69 µg/mL) | – | – | – | 86% | 72 µM | 39 µM
33 | CC[C@H](C)[C@H](NC(=O)OCc1ccccc1)C(=O)N[C@@H](CS(C)(=O)=O)C(=O)N[C@@H](C)C(=O)N[C@H](/C=C/S(C)(=O)=O)CC(C)C | – | 140 µM | 13 µM | – | – | – | –
34 | CC[C@H](C)[C@H](NC(=O)OCc1ccccc1)C(=O)N[C@@H](CCC(=O)NC(C)C)C(=O)N[C@@H](C)C(=O)N[C@H](/C=C/S(C)(=O)=O)CC(C)C | – | > 150 µM | 41 µM | 3000 µM | 89% | – | –
35 | CC(=O)N[C@@H](CCc1ccccc1)C(=O)N[C@@H](CC(C)C)C(=O)N[C@H](C)C(=O)N[C@H](/C=C/S(C)(=O)=O)CC(C)C | – | > 150 µM | 77 µM | – | – | – | –
36 | CC[C@H](C)[C@H](NC(=O)OCc1ccccc1)C(=O)N[C@@H](CCC(=O)NC(C)(C)C)C(=O)N[C@@H](C)C(=O)N[C@H](/C=C/S(C)(=O)=O)CC(C)C | 57 µM (≈ 39.6 µg/mL) | 51 µM | 3.3 µM | 5000 µM | 89% | – | –
37 | CC[C@H](C)[C@H](NC(=O)OCc1ccccc1)C(=O)N[C@@H](CCc1ccccc1)C(=O)N[C@@H](C)C(=O)N[C@H](/C=C/S(C)(=O)=O)CC(C)C | < 10 µM | 41 µM | 10 µM | 0.6 µM | 22% | – | –
38 | CC[C@H](C)[C@H](NC(=O)OCc1ccccc1)C(=O)N[C@@H](CCC(=O)OC(C)(C)C)C(=O)N[C@@H](C)C(=O)N[C@H](C=O)CC(C)C (Cbz-IE(OtBu)AL-aldehyde) | – | – | – | 0.375 µM | – | – | –
39 | CC(C)C[C@@H](C=O)NC(=O)[C@H](CC(C)C)NC(=O)[C@H](CC(C)C)NC(=O)OCc1ccccc1 [MG-132] (Cbz-Leu-Leu-Leu-aldehyde) | – | – | – | 0.6 µM | – | 0.012 µM | –
